Results: PMC12686126, “LL‐37 Inhibits TMPRSS2‐Mediated S2' Site Cleavage and SARS‐CoV‐2 Infection but Not Omicron Variants” (Cell Proliferation, 2025)
Entries after “also recorded” stand apart in the source; their conditions may differ. Structures can show the parent of a compound that is named as a salt.

Columns and labels:
[1] = system: SARS‐CoV‐2 spike pseudovirus; assay type: cell-based
SARS‐CoV‐2 = conditions: cited from earlier work
TMPRSS2 = TMPRSS2 activity measurement; assay type: cell-based, human; conditions: 293T‐T2 cells, 2 h at 37°C; Boc‐Phe‐Ser‐Arg‐MCA 100 μM, fluorescence 360/460 nm; LL‐37 0–20 μg/mL, CM and E64d 0–100 μM
Description: 293T‐T2 cells (5 × 10^4/well) in a black 96‐well flat‐bottom plate were treated for 2 h at 37°C with LL‐37 (0, 1, 5, 10, 20 μg/mL), camostat mesylate (0, 0.1, 0.5, 1, 5, 10, 50, 100 μM, MedChemExpress), or E64d (0, 0.1, 0.5, 1, 5, 10, 50, 100 μM, MedChemExpress). The peptide and inhibitors were prepared with DMEM free of FBS. To measure the proteolytic activity of TMPRSS2, the medium was replaced with 100 μL of DMEM free of FBS and phenol red and containing 100 μM of Boc‐Phe‐Ser‐Arg‐MCA (Peptide, Japan). The fluorescence intensity was measured after 2 h of incubation at 37°C using a microplate reader (Biotek, USA). The excitation/emission wavelengths were 360/460 nm. The values were expressed as a percent of fluorescence intensity relative to the control. Camostat mesylate and E64d were used as the positive and negative controls respectively. All procedures were carried out in the dark.

BA.1 spike = assay type: cell-based, SARS‐CoV‐2 Omicron BA.1
SARS‐CoV‐2 spike [2] = assay type: cell-based
BA.4/5 spike [3] = assay type: cell-based, SARS‐CoV‐2 Omicron BA.4/5
Delta spike = assay type: cell-based, SARS‐CoV‐2 Delta
[4] = system: BA.4/5 spike pseudovirus (S1 and S2 subunits) attached to 293T‐A2 cells; assay type: cell-based, SARS‐CoV‐2 Omicron BA.4/5
SARS‐CoV‐2 spike [5] = system: SARS‐CoV‐2 spike; parameters: species or system mouse (BALB/c); conditions: mouse, in vivo
BA.4/5 spike [6] = system: BA.4/5 spike; parameters: species or system mouse (BALB/c); conditions: mouse, in vivo
Delta spike S2 subunit = assay type: cell-based, SARS‐CoV‐2 Delta
[7] = system: receptor binding domain (RBD) of spike S1 and the ACE2 receptor; conditions: by binding to the RBD and/or ACE2; ref [36], [37], [41], [42]; cited from earlier work
[8] = system: NF‐kB p50 and p65 subunits; conditions: leading to immunosuppression; ref [67], [68]; cited from earlier work
BA.4/5 spike pseudovirus = assay type: cell-based, SARS‐CoV‐2 Omicron BA.4/5
Beta spike pseudovirus = assay type: cell-based, SARS‐CoV‐2 Beta
BA.4/5 spike [9] = system: BA.4/5 spike; parameters: species or system mouse (BALB/c); conditions: mouse, in vivo; remark: listed apart in the source
BA.2 spike pseudovirus = assay type: cell-based, SARS‐CoV‐2 Omicron BA.2
FPRL‐1 and CXCR2 = conditions: receptors involved in chemotaxis of monocytes, neutrophils and lymphocytes; ref [65], [66]; cited from earlier work
[10] = no reference given; cited from earlier work
TLR3, TLR7, or TLR9 = conditions: binds DNA/RNA, elevates type I interferon response; ref [63], [64]; cited from earlier work
[11] = system: SARS‐CoV‐2 spike S2 subunit; assay type: cell-based
BA.1 spike pseudovirus = assay type: cell-based, SARS‐CoV‐2 Omicron BA.1
BA.1 spike S2 subunit = assay type: cell-based, SARS‐CoV‐2 Omicron BA.1
[12] = system: 293T‐A2 and 293T‐Mock cell membranes; assay type: cell-based; conditions: 293T-A2 vs 293T-Mock cells treated 2 h with LL-37; western blot (Figure S4A)
BA.4/5 spike S2 subunit = assay type: cell-based, SARS‐CoV‐2 Omicron BA.4/5
[13] = system: SARS‐CoV‐2 spike pseudovirus; assay type: cell-based; remark: listed apart in the source
[14] = system: SARS‐CoV‐2 spike pseudovirus (S1 and S2 subunits) attached to 293T‐A2 cells; assay type: cell-based
[15] = system: BA.1 spike pseudovirus (S1 and S2 subunits) attached to 293T‐A2 cells; assay type: cell-based, SARS‐CoV‐2 Omicron BA.1
[16] = system: SARS‐CoV‐2 spike S1 and S2 subunits; assay type: binding
FPR‐2 receptor = conditions: leading to immunosuppression; ref [67], [68]; cited from earlier work
SARS‐CoV‐2 spike [17] = system: SARS‐CoV‐2 spike; parameters: species or system mouse (BALB/c); conditions: mouse, in vivo; remark: listed apart in the source
[18] = system: SARS‐CoV‐2 spike pseudovirus; assay type: cell-based; remark: listed apart in the source
S2 subunit of BA.1 spike = assay type: binding, SARS‐CoV‐2 Omicron BA.1
[19] = system: BA.2.12.1 spike pseudovirus; assay type: cell-based, SARS‐CoV‐2 Omicron BA.2.12.1
BA.3 spike pseudovirus = assay type: cell-based, SARS‐CoV‐2 Omicron BA.3
[20] = ref [44]; cited from earlier work
[21] = system: SARS‐CoV‐2 spike S2 subunit; assay type: binding; conditions: pH 9.6
Delta spike pseudovirus = assay type: cell-based, SARS‐CoV‐2 Delta

## CN(C)C(=O)COC(=O)Cc1ccc(OC(=O)c2ccc(NC(=N)N)cc2)cc1 [CM, camostat mesylate, reference compound]
[1]
  reduction of pseudovirus‐induced RLU: about 60%
SARS‐CoV‐2
  antiviral activity against SARS‐CoV‐2: shows antiviral activity against SARS‐CoV‐2
TMPRSS2
  suppression of cellular TMPRSS2 activity: suppressed cellular TMPRSS2 activity at sub‐micromolar concentrations

## O=C(CC1NCCCC1O)Cn1cnc2cc(Br)c(Cl)cc2c1=O (stereo not shown) [halofuginone]
SARS‐CoV‐2
  inhibition of SARS‐CoV‐2 entry and replication: high inhibition

## COC(=O)C[C@](O)(CCCC(C)(C)O)C(=O)O[C@@H]1C(OC)=C[C@]23CCCN2CCc2cc4c(cc2[C@H]13)OCO4 [homoharringtonine]
SARS‐CoV‐2
  inhibition of SARS‐CoV‐2 entry and replication: high inhibition

## CNC(=O)[C@@H](NC(=O)[C@H](CC(C)C)[C@H](O)C(=O)NO)C(C)(C)C [marimastat, reference compound]
[1]
  reduction of pseudovirus‐induced RLU: ~25%
SARS‐CoV‐2
  inhibition of SARS‐CoV‐2‐induced membrane fusion: inhibitory activity against SARS‐CoV‐2‐induced membrane fusion at sub‐micromolar levels

## KRKSFDGFKELILKGRQEIKFKRDIFLVNLRETRPSV [KR‐37, reference compound]
BA.1 spike
  inhibition of cell–cell fusion: showed no inhibition
SARS‐CoV‐2 spike [2]
  inhibition of cell–cell fusion: showed no inhibition
BA.4/5 spike [3]
  inhibition of cell–cell fusion: showed no inhibition
Delta spike
  inhibition of cell–cell fusion: showed no inhibition

## LLGDFFRKSKEKIGKEFKRIVQRIKDFLRNLVPRTES [LL‐37]
[4]
  plasma membrane‐attached spike (S1 and S2 subunits): equal quantity
SARS‐CoV‐2 spike [5]
  IgG responses: enhanced
  IgG responses and titers: no significant difference
BA.4/5 spike [6]
  IgM responses and titers: no difference and low levels to background
Delta spike S2 subunit
  generation of S2' fragment: consistent result with that of SARS‐CoV‐2
[7]
  block of RBD–ACE2 interaction: block the interaction
[8]
  prevention of NF‐kB translocation: prevent the translocation of NF‐kB p50 and p65 subunits
BA.4/5 spike pseudovirus
  inhibition of pseudovirus entry: inhibitory effects were compromised
Beta spike pseudovirus
  inhibition of pseudovirus entry: significantly inhibit
BA.1 spike
  inhibition of cell–cell fusion: compromised inhibition
BA.4/5 spike [9]
  IgG responses and titers: no difference and low levels to background
BA.2 spike pseudovirus
  inhibition of pseudovirus entry: inhibitory effects were compromised
SARS‐CoV‐2 spike [2]
  inhibition of cell–cell fusion: inhibited
SARS‐CoV‐2 spike [2]; 10 μg/mL
  inhibition of fusion, pretreatment vs treatment during infection: stronger inhibition of fusion than treatment during infection
FPRL‐1 and CXCR2
  receptor binding: directly bind with receptors such as FPRL‐1 and CXCR2
[10]
  overall positive net charge: +6
TLR3, TLR7, or TLR9
  effect on TLR signalling: augment signalling via TLR3, TLR7, or TLR9
[11]
  generation of S2' fragment: remarkably reduced
BA.1 spike pseudovirus
  inhibition of pseudovirus entry: inhibitory effects were compromised
BA.1 spike S2 subunit
  generation of S2' fragment: did not significantly reduce
[12]
  LL‐37 attachment to cell membrane: could attach to the cell membrane independent of the ACE2 expression
BA.4/5 spike S2 subunit
  generation of S2' fragment: did not significantly reduce
[13]
  reduction of RLU caused by LL‐37 with endosomal inhibitor: no significant difference
BA.4/5 spike [3]
  inhibition of cell–cell fusion: compromised inhibition
[14]
  plasma membrane‐attached spike (S1 and S2 subunits): equal quantity
[15]
  plasma membrane‐attached spike (S1 and S2 subunits): equal quantity
[16]
  spike subunit bound to plasma membrane facilitated by LL‐37: S2 subunit rather than the S1 subunit
  spike subunits bridged by LL‐37 to plasma membranes: bridged more S2 subunits than S1 subunits
FPR‐2 receptor
  receptor interaction: interact with the FPR‐2 receptor
SARS‐CoV‐2 spike [17]
  IgM responses and titers: elevated IgM responses and titers
[18]
  prevention of pseudovirus entry: prevented; also recorded: not if added 2 h post infection (hpi) and 4 hpi
Delta spike
  inhibition of cell–cell fusion: inhibited
Delta spike; 10 μg/mL
  inhibition of fusion, pretreatment vs treatment during infection: stronger inhibition of fusion than treatment during infection
S2 subunit of BA.1 spike
  binding of S2 subunit to immobilised LL‐37: much lower binding
[19]
  inhibition of pseudovirus entry: inhibitory effects were compromised
TMPRSS2
  suppression of cellular TMPRSS2 activity: not LL‐37 or E64d suppressed
BA.3 spike pseudovirus
  inhibition of pseudovirus entry: inhibitory effects were compromised
[20]
  attachment to lipid bilayer: can attach to lipid bilayer via the C‐terminal VPRTES tail
[21]
  binding of S2 subunit to immobilised LL‐37: much stronger binding
Delta spike pseudovirus
  inhibition of pseudovirus entry: significantly inhibit

## α1‐antitrypsin
SARS‐CoV‐2
  inhibition of SARS‐CoV‐2 entry and replication: high inhibition
